Reference: PubChem BioAssay AID2305 (GlaxoSmithKline (GSK), 2010)
pIC50: −log10 of the molar value.

Tested on: P. falciparum 3D7 growth, pLDH absorbance
Test: P. falciparum 3D7 growth inhibition, dose response, strain 3D7 (AID 2305)

SMILES | pIC50
CCNc1cc(C(=O)N[C@@H](Cc2ccccc2)[C@H](O)CNC2(C)CCCCC2)cc(N2CCCCS2(=O)=O)c1 | 6.80
CS(=O)(=O)Cc1ccc(Nc2ncc(Cl)c(Nc3cccnc3C(N)=O)n2)cc1 | 6.06
COc1nc2c(CCN3CCC(NCc4ccc5c(c4)NCCO5)CC3)c(Cl)cnc2cc1F | 6.74
Cc1cccc(C(=O)Nc2ccnc(N(C)C3CCN(Cc4cccc(O)c4)CC3)c2)c1 | 6.03
CCc1ccc(CN2CCC(NC(=O)c3ccc(-c4ccc(N(C)C)cc4)s3)CC2)cc1 | 5.92
CCC[C@]1(C)CSc2ccccc2[C@@H](c2ccccc2)N1 | 6.15
Cc1nc2ccc3ccc(CNc4ccc(C(=O)N[C@@H](CCC(=O)O)C(=O)O)c(F)c4)cc3c2c(=O)[nH]1 | 6.40
Cc1ccoc1C(=O)Nc1cccc(-c2cccc(-c3nc4c(C)cccc4[nH]3)c2)c1 | 6.17
COc1ccc2ncc(F)c(CCN3CCC(NCc4cc(Br)c5c(c4)OCCO5)CC3)c2n1 | 6.72
CCCC(C)Nc1nc(C)cc(N[C@@H](CC(C)C)C(=O)Nc2ccc(OC)cc2)n1 (some centres undefined) | 6.06
Cc1cccc(N2CCN(Cc3cc(Cl)ccc3O)CC2)c1C | 6.11
CCCCCCC(N)c1ccc(OCCCOc2ccc(C(N)CCCCCC)cc2)cc1 (centres undefined) | 5.94
CCOC(=O)c1ccc(NC(=O)N[C@@H](Cc2ccc(O)cc2)C(=O)NC2CCN(Cc3ccc4c(c3)OCO4)CC2)cc1 | 5.97
Cc1cccc2[nH]c(-c3ccc(-c4ccc(NC(=O)Nc5ccc(F)c(F)c5F)cc4)cc3)nc12 | 6.57
COc1cc(NC(=O)/C=C/c2cc(F)cc(F)c2F)cc(OCCN2CCC3(CC2)OCCO3)c1 | 6.57
CC(=O)Nc1ccc(C(=O)Nc2cccc(-c3ccc(-c4nc5ccc(F)cc5[nH]4)s3)c2)cn1 | 6.64
CCOc1ccc(CN(CCc2ccc3c(c2)OCO3)Cc2cc(OC)ccc2O)cc1 | 6.12
Clc1ccc(CNc2ccnc(NCCc3coc4ccccc34)n2)c(Cl)c1 | 5.93
COc1ccc(Cc2c(Cl)nc3nc(N)nc(N)c3c2C)c(OC)c1OC | 6.14
CN1CCN(c2ccc(Nc3c4ccccc4nc4ccccc34)cc2)CC1 | 6.19

SMILES | pIC50
Cc1ccccc1C1CCN(C2CCC(NC(=O)/C=C/c3cccc(C(F)(F)F)c3)CC2)CC1 (centres undefined) | 5.82
Cc1cc(N2CCC(C)CC2)nc2cc(O)ccc12 | 5.93
COC(=O)c1ccc(CCC(C)NCC(O)c2cccc(C(F)(F)F)c2)cc1 (centres undefined) | 6.39
O=C(N[C@H]1CCN(Cc2ccc(OCCN3CCCC3)c3ccccc23)C1)c1ccc(Cl)c(Cl)c1 | 6.12
CNC(=O)c1cc(S(=O)(=O)N2CCN(c3ccccn3)CC2)c(C)s1 | 5.94
COc1ccc2nc3cc(Cl)ccc3c(NCCO)c2c1 | 6.10
CN(CCCNCc1ccc2ccccc2c1)CCCNCc1ccc2ccccc2c1 | 6.41
COc1cc2c(c(OC)c1OC)C[C@H]1c3c(cc4c(c3-2)OCO4)CCN1C | 6.01
Cc1nc(-c2cccc(Nc3nccc(NCC(O)c4ccccc4C)n3)c2)cs1 (centres undefined) | 6.05
CCc1ccc2nc(-c3ccc(F)cc3)nc(SCC(=O)Nc3sc(C)c(C)c3C#N)c2c1 | 6.19
O=C(NCc1ccc(Cl)cc1)c1ccc(C(=O)NCC2CCCN2CC2CCCCC2)cc1 (centres undefined) | 6.07
CCCCCN1CCC(NC(=O)c2ccc(C(=O)Nc3ccc(C(C)C)cc3)cc2)C1 (centres undefined) | 6.02
COc1cc(C(=O)N2CCOC(CCN3CCc4c(c5ccccc5n4C)C3)(c3ccc(Cl)c(Cl)c3)C2)cc(OC)c1OC (centres undefined) | 6.44
Cc1cccc(Nc2nc(NCCCCN)nc3cc[nH]c(=O)c23)c1 | 6.14
O=C(/C=C/c1ccc(I)cc1)NCCCCCN1CCC(c2c[nH]c3ccc(O)cc23)CC1 | 6.11
CCc1c(CCNCCCCCNCCc2ccc(OC)c(OC)c2CC)ccc(OC)c1OC | 5.95
CCOCc1cn(CC(=O)c2ccc(-c3ccccc3)cc2)c(C)nc1=N | 6.49
COc1ccc(-c2cnc3ccc(NCc4ccc(F)cc4)nn23)cc1OC | 6.08
O=C(Cn1c(CCc2cccc(F)c2F)nc(=O)c2cccnc21)N(Cc1ccc(-c2ccc(C(F)(F)F)cc2)cc1)C1CCN(C2CCSCC2)CC1 | 6.64
